Our source for the normalised inhibition (eCFP-eYFP dual reporter) values is the OligoGym collection.

Oligonucleotides are written 5' to 3', each unit as a sugar letter and its base; * is a phosphorothioate linkage, no mark a phosphodiester; rarer units and linkages stand in square brackets, end groups in braces. Plain capitals give the bases only. d = 2'-deoxy (DNA); r = 2'-OH (RNA)
Further: test concentration or dose not given here.

The data set addresses RHOQ. As to the kind of experiment: reporter assay of Huesken 2005. The settings on record: siRNA.
In turn, “sense rGrCrArUrCrArGrArUrArArUrGrGrUrGrUrUrAdTdT / antisense rUrArArCrArCrCrArUrUrArUrCrUrGrArUrGrCdAdT” returned a normalised inhibition (eCFP-eYFP dual reporter) of 92.8%.

As to “sense rGrGrArUrGrUrCrUrUrCrUrUrUrCrUrUrCrCrAdTdT / antisense rUrGrGrArArGrArArArGrArArGrArCrArUrCrCdAdA”, the normalised inhibition (eCFP-eYFP dual reporter) came to 83.2%.

Consider “sense rUrArArArGrUrArUrCrArUrGrGrCrCrUrUrArUdTdT / antisense rArUrArArGrGrCrCrArUrGrArUrArCrUrUrUrAdAdT”, for which the normalised inhibition (eCFP-eYFP dual reporter) was 75.9%.

The substance “sense rUrArCrUrGrGrArUrGrArCrUrGrGrCrCrArGrGdTdT / antisense rCrCrUrGrGrCrCrArGrUrCrArUrCrCrArGrUrAdGdA” registered a normalised inhibition (eCFP-eYFP dual reporter) of 55.2%.

For “sense rUrArGrCrUrArUrGrUrCrUrArCrUrGrCrArCrAdTdT / antisense rUrGrUrGrCrArGrUrArGrArCrArUrArGrCrUrAdTdA”, the normalised inhibition (eCFP-eYFP dual reporter) is 86.8%.

“sense rUrArUrArGrCrUrArUrGrUrCrUrArCrUrGrCrAdTdT / antisense rUrGrCrArGrUrArGrArCrArUrArGrCrUrArUrAdAdG”: the normalised inhibition (eCFP-eYFP dual reporter) came to 77.6%.

“sense rUrArUrGrCrCrArUrGrCrArUrCrArGrArUrArAdTdT / antisense rUrUrArUrCrUrGrArUrGrCrArUrGrGrCrArUrAdTdG” gave a normalised inhibition (eCFP-eYFP dual reporter) of 75.7%.

“sense rUrArUrGrCrUrCrArArArUrGrGrArArUrCrUrUdTdT / antisense rArArGrArUrUrCrCrArUrUrUrGrArGrCrArUrAdCdA” displayed a normalised inhibition (eCFP-eYFP dual reporter) of 54.7%.

Consider “sense rUrCrArCrArUrGrArCrUrUrGrArGrCrUrUrArUdTdT / antisense rArUrArArGrCrUrCrArArGrUrCrArUrGrUrGrAdAdT”, for which the normalised inhibition (eCFP-eYFP dual reporter) was found to be 87%.

The substance “sense rUrCrGrGrArCrArUrUrUrGrGrArUrGrUrCrUrUdTdT / antisense rArArGrArCrArUrCrCrArArArUrGrUrCrCrGrAdTdT” gave a normalised inhibition (eCFP-eYFP dual reporter) of 83%.

In the case of “sense rUrCrUrUrArUrUrUrArArUrUrUrUrGrGrUrCrUdTdT / antisense rArGrArCrCrArArArArUrUrArArArUrArArGrAdAdA”, the normalised inhibition (eCFP-eYFP dual reporter) was 44.2%.

Regarding “sense rUrGrArArArArUrGrArCrArGrCrCrUrUrArArAdTdT / antisense rUrUrUrArArGrGrCrUrGrUrCrArUrUrUrUrCrAdAdG”, the normalised inhibition (eCFP-eYFP dual reporter) is 78.8%.

In turn, “sense rUrGrArArGrArGrUrGrGrArGrArGrArGrUrCrUdTdT / antisense rArGrArCrUrCrUrCrUrCrCrArCrUrCrUrUrCrAdAdT” showed a normalised inhibition (eCFP-eYFP dual reporter) of 70.7%.

“sense rUrGrArArUrCrGrGrArCrArUrUrUrGrGrArUrGdTdT / antisense rCrArUrCrCrArArArUrGrUrCrCrGrArUrUrCrAdGdA”: the normalised inhibition (eCFP-eYFP dual reporter) worked out at 38.9%.

Turning to “sense rUrGrArCrUrUrGrArGrCrUrUrArUrArGrCrUrAdTdT / antisense rUrArGrCrUrArUrArArGrCrUrCrArArGrUrCrAdTdG”, the normalised inhibition (eCFP-eYFP dual reporter) was 84.9%.

In turn, “sense rUrGrCrArUrCrArGrArUrArArUrGrGrUrGrUrUdTdT / antisense rArArCrArCrCrArUrUrArUrCrUrGrArUrGrCrAdTdC” had a normalised inhibition (eCFP-eYFP dual reporter) of 61.6%.

In the case of “sense rUrGrCrArUrUrUrUrArGrArGrArArArCrArArUdTdT / antisense rArUrUrGrUrUrUrCrUrCrUrArArArArUrGrCrAdTdT”, the normalised inhibition (eCFP-eYFP dual reporter) was 84.9%.

The substance “sense rUrGrCrCrArUrGrCrArUrCrArGrArUrArArUrGdTdT / antisense rCrArUrUrArUrCrUrGrArUrGrCrArUrGrGrCrAdTdA” gave a normalised inhibition (eCFP-eYFP dual reporter) of 59.7%.

Substance “sense rUrGrCrUrCrArUrArUrCrArGrUrCrArCrArArAdTdT / antisense rUrUrUrGrUrGrArCrUrGrArUrArUrGrArGrCrAdTdT” had a normalised inhibition (eCFP-eYFP dual reporter) of 83.6%.
